A word on the Kd: it is the concentration at which binding is half-saturated. What is called IC50 is the midpoint of a concentration-inhibition curve. A higher IC50 goes with a need for much substance.

The target in assay [1] is T1, Flt3 (D835H) (Homo sapiens, UniProt P36888, D835H).
T1 construct: purchased DiscoveRx Corporation (KinomeScan service)
In words: KinomeScan competition binding assay. The text has this: (§1) Detailed assay methodologies can be found in the relevant references cited herein, or in the KinaseProfiler Service Assay Protocols (v54, 2011) available from EMD Millipore (www.emdmillipore.com), or from the KinomeScan website (www.kinomescan.com), as appropriate. (For a more detailed description of KINOMEscan's assay technology, see: Fabian et al. A small molecule-kinase interaction map for clinical kinase inhibitors. Nat. Biotechnol. 23, 329-336 (2005)). A summary is provided below.
(§2) KinomeScan™ assays (DiscoveRx Corporation, San Diego, Calif., USA) are active-site-directed competition binding assays. […] The amount of kinase captured in test versus control samples is determined by using a qPCR method that detects the associated DNA label on each kinase molecule. Dissociation constants (Kd) for test compound-kinase interactions are calculated by measuring the amount of kinase captured on the solid support as a function of the test compound concentration.

Assay [2] has as its target T2, Ret (M918T) (Homo sapiens, UniProt P07949, M918T).
T2 construct: purchased DiscoveRx Corporation (KinomeScan service)
In words: KinomeScan competition binding assay.
Source text: as §1, §2

Assay [3] deals with T3, Ysk4 (Homo sapiens, UniProt Q56UN5).
T3 construct: purchased DiscoveRx Corporation (KinomeScan service)
The experiment in a line: KinomeScan competition binding assay.
Source text: as §1, §2

In assay [4] the target is T4, TEK(R849W) (Homo sapiens, UniProt Q02763, R849W).
T4 construct: purchased EMD Millipore Corp. (KinaseProfiler service)
The experiment in a line: KinaseProfiler kinase activity assay. Format: biochemical. As to conditions: ATP at Km. The text has this:
(§3) A summary is provided below.

The target of assay [5] is T5, TEK(Y897S) (Homo sapiens, UniProt Q02763, Y897S).
T5 construct: purchased EMD Millipore Corp. (KinaseProfiler service)
The experiment in a line: KinaseProfiler kinase activity assay. Format: biochemical. Particulars: ATP at Km.
Source text: as §3

Assay [6] has as its system Ba/F3 cells expressing the non-mutated Bcr-Abl1 kinase. The experiment in a line: WST-1 cell viability, Ba/F3 cells expressing Bcr-Abl1. Format: cell-based. Particulars: Mus musculus, BaF3, 48 hours, serum free. The procedure: Ba/F3 cells either stably overexpressing Bcr-Abl1 (A) or the mutant Bcr-Abl1 T315I (B) were cultured overnight in serum free RPMI-1640 media supplemented with 2 mM glutamine, 100 U/mL penicillin and 100 μg/mL streptomycin (Sigma-Aldrich). The following day, cells were plated in a 96-well plate with each well containing 2000 cells in a volume of 100 μl serum free RMPI media. […] The 96 well plates were incubated for 48 hours, and cell viability was measured in a WST-1 assay (Roche). Briefly, 5 μl WST-1 solution was added to each well and the 96-well plate was incubated for another 2 hours. The readout was performed in an ELSA reader at 480 nm. (measure)/620 nm (reference). Subsequent data analysis was performed with Microsoft Excel 2003 and GraphPad Prism 4.0.
(In general: Tetrazolium dyes change colour on reduction, which living cells bring about.)

Assay [7] concerns Ba/F3 cells (WT, FLT3 WT, FLT3-ITD, D835Y). The experiment in a line: Annexin V-PI apoptosis/cell death assay, four Ba/F3 cell lines. Type of assay: cell-based, Murine. The text has this: Murine pro-B lymphocyte line Ba/F3 wild type (Ba/F3 WT), and Ba/F3 lines stably transduced with expression vectors that encoded wild-type human FLT3 (Ba/F3 FLT3 WT cells) or human FLT3 containing an ITD mutation (Ba/F3-ITD cells) or D835Y (Ba/F3 D835Y cells) point mutations, which lead to constitutively functional activation of the protein, were obtained from Bjørn Tore Gjertsen (Department of Clinical Science, Hematology Section, University of Bergen, Bergen, Norway). Ba/F3 WT, Ba/F3 FLT3 WT and Ba/F3 835Y cells were maintained in RPMI-1640 medium, containing 10% fetal calf serum (FCS, HyClone, Logan, UT), 2 mM L-glutamine and 50 U/mL penicillin-streptomycin (Sigma-Aldrich, Inc, St Louis, Mo., USA), and 10% WEHI-3B conditioned medium as a source of murine interleukin-3 (mIL-3). […]
Quantification of apoptotic and necrotic cells was determined by measuring externalization of phosphatidylserine with annexin V, conjugated to Alexa® Fluor 647 (Invitrogen, Molecular Probes, OR, USA) and using propidium iodide (PI; Sigma-Aldrich) as a dead-cell counterstain. […] After drug treatment cells were stained according the manufacturer's protocol, and subsequently analysed on an Accuri C6 flow cytometer (Becton Dickinson Immunocytometry Systems, San Jose, Calif., USA). […] The percent viable cells are expressed as percentage of untreated cells, performed in a single experiment.

Assay [8] concerns T315I-mutated BCR-ABL1 transduced bone marrow cells. In words: Preclinical CML model, bone marrow cells transduced with T315I-mutated BCR-ABL1. As to conditions: 25 (or 50) mg/Kg twice per day; Balb/c mice. Type of assay: in vivo. The protocol: 6- to 8 week old male Balb/c mice were sublethally irradiated and i.v. injected with 0.5×10^6 retroviral transduced BM cells (pMSCV_gfp/BCR-ABL_T315I).
Bone marrow donor mice: To harvest donor bone marrow mice were injected subcutaneously with 5-FU (150 mg/kg mice). The bone marrow was isolated five days later and transduced with the desired retroviral construct. [Daley, G. Q., R. A. Van Etten, and D. Baltimore, Induction of chronic myelogenous leukemia in mice by the P210bcr/abl gene of the Philadelphia chromosome. Science, 1990. 247(4944): p. 824-30.]

In assay [9] the test system is BaF3/wt-BCR-ABL cells. The experiment in a line: Subcutaneous BaF3/wt-BCR-ABL tumor model. Type of assay: in vivo. As to conditions: 25 (or 50) mg/kg twice per day via gavage; NSG mice. The procedure:
(§4) 6- to 8-week-old male NSG mice were implanted subcutaneously with 1×10^7 BaF3/wt-BCR-ABL or 1×10^7 BaF3/T315I cells per mouse into the right flank. Five days after implantation mice were randomized into groups with a mean volume of approximately 100 mm^3. […] Tumor volume was measured every 2-3 days. Animals were sacrificed at day 12 and tumors embedded for histology.

In assay [10] the test system is BaF3/T315I cells. The experiment in a line: Subcutaneous BaF3/T315I tumor model. Format: in vivo. Particulars: 25 (or 50) mg/kg twice per day via gavage; NSG mice. The protocol: as §4
The target in assay [11] is c-Kit (Homo sapiens, UniProt P10721). The experiment in a line: KinaseProfiler kinase activity assay. Format: biochemical. Further details: purchased EMD Millipore Corp. (KinaseProfiler service).
Chain of c-Kit (P10721 26-976): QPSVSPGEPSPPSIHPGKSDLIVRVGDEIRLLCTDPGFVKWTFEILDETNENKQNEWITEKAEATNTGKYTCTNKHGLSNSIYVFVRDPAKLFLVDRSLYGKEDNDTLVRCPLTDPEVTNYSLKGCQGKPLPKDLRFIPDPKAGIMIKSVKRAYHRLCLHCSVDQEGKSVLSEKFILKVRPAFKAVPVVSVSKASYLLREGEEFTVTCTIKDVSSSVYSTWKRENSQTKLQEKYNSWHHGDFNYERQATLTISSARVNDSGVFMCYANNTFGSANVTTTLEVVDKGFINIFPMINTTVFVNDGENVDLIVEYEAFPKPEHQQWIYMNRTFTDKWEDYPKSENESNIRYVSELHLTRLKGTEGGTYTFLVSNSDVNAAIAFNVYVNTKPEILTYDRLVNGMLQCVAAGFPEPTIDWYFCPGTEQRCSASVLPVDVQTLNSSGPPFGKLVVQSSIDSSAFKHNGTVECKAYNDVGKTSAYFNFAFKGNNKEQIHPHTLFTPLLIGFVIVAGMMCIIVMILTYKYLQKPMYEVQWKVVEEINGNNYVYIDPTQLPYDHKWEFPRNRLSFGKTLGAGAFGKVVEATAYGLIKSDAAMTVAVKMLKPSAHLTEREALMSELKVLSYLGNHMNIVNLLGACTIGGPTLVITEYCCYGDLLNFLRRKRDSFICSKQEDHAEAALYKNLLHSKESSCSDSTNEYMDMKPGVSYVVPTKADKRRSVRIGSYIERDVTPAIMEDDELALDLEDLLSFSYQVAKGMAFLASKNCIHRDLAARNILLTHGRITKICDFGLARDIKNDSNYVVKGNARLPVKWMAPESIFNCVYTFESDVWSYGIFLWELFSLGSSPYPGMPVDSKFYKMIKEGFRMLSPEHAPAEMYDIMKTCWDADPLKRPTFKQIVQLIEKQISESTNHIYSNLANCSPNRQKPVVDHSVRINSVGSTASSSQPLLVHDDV
Method: KinaseProfiler™ assays (EMD Millipore Corp. Billerica, Mass., USA) are radioligand binding assays with purified or partially-purified human kinases. Most of the KinaseProfiler™ assays are conducted in 20 mM MOPS, 1 mM EDTA, 0.01% Brij-35, 5% Glycerol, 0.1% b-mercaptoethanol, 1 mg/mL BSA. The assay involves the transfer of ^32P from γ-^32P-ATP to the target peptide, followed by washing and trapping of the labeled peptide on a filter. The concentration of γ-^32P-ATP used was at the established Km for ATP.

T3 sequence (Q56UN5 whole entry): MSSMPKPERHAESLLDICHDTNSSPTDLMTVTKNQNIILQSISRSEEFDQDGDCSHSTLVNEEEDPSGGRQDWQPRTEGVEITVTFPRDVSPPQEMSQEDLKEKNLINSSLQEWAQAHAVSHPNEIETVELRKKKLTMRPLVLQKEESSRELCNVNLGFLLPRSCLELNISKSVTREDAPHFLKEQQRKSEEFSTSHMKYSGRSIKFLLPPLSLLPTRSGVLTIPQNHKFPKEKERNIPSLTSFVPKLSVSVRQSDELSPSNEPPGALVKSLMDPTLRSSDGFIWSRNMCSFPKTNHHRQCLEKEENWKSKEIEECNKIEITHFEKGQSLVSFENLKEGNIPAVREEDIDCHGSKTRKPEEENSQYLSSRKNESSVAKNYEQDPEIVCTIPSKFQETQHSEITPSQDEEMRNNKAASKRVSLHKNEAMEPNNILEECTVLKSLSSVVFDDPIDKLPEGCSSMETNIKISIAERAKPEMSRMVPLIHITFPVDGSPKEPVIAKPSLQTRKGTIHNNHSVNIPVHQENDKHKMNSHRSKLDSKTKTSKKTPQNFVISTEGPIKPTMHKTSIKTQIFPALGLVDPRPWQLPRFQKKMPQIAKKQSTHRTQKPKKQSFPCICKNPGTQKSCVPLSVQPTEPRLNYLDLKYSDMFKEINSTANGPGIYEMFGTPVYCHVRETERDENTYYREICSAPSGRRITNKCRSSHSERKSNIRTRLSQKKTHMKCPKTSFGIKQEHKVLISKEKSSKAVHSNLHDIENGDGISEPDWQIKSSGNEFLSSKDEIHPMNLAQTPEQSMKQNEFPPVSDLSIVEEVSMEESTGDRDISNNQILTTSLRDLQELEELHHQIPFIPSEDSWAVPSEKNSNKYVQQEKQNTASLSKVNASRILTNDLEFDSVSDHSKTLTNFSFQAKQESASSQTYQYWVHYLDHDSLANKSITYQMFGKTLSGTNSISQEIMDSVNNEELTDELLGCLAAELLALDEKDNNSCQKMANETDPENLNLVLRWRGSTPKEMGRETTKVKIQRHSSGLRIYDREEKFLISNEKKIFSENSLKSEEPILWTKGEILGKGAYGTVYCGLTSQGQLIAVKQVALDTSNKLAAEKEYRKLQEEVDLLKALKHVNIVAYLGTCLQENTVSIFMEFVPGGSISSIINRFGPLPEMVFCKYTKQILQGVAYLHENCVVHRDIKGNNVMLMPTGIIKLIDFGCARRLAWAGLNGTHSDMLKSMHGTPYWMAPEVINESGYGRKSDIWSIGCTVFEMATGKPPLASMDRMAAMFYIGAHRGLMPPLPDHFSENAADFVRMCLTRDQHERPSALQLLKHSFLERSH
T4 sequence (Q02763 23-1124 R849W): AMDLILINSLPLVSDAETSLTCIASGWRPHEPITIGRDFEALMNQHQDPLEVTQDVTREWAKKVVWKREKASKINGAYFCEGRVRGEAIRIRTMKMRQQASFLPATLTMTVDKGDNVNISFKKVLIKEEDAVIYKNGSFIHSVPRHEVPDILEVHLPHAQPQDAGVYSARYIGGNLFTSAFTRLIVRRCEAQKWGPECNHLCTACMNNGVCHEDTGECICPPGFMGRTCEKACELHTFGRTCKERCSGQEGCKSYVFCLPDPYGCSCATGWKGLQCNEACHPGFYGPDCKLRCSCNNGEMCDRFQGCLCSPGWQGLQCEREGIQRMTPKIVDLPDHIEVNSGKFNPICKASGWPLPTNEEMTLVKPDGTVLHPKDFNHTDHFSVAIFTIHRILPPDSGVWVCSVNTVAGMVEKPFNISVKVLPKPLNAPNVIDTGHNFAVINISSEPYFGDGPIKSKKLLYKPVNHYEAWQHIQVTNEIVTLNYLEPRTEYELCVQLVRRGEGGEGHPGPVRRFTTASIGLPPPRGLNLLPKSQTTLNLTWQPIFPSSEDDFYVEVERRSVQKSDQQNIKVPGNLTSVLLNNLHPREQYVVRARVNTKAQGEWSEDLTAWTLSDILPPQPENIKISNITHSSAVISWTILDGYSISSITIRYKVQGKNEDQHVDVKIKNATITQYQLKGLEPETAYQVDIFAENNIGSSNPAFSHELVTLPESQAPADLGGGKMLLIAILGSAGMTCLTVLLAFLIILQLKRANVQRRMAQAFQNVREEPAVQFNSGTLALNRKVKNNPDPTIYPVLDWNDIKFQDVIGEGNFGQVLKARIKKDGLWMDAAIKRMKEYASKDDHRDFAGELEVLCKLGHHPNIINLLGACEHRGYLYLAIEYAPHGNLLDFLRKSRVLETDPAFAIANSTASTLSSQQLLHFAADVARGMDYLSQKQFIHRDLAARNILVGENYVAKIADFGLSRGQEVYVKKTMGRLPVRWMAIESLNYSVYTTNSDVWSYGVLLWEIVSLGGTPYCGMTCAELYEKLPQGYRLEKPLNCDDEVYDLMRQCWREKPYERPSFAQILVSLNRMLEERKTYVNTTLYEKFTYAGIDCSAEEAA
T5 sequence (Q02763 23-1124 Y897S): as the sequence (Q02763 23-1124 R849W) above, with W827R, Y875S counted along it
T2 sequence (P07949 29-1114 M918T): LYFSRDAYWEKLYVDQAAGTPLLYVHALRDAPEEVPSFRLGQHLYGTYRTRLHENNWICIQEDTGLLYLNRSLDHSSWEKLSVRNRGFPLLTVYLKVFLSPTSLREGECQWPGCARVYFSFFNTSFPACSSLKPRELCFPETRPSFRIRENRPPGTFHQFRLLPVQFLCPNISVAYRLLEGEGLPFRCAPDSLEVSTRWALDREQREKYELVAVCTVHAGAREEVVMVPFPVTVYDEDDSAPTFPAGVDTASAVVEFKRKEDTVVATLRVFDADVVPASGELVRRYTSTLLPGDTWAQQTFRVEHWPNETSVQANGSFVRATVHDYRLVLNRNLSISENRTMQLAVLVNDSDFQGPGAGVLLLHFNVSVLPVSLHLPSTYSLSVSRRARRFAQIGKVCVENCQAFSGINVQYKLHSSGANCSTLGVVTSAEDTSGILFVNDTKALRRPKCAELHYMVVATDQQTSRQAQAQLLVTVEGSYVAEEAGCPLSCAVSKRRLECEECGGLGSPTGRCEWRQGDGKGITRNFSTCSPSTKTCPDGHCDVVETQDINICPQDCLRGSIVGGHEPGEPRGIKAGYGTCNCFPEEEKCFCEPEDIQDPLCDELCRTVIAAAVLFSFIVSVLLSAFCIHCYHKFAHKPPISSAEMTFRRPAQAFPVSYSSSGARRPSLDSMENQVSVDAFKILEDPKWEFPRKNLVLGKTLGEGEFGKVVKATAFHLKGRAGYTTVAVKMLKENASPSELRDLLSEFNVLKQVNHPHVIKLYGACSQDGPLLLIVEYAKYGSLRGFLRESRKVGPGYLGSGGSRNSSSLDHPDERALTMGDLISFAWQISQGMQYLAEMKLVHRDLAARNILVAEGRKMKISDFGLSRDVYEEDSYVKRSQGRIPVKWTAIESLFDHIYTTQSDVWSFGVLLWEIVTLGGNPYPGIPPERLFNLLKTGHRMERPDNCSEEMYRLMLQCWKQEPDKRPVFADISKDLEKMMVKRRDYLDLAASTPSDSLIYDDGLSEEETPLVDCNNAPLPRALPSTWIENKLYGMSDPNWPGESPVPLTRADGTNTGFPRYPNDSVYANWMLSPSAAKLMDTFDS

As to `Nc1nc(Nc2ccc3c(c2)CC[C@@H](N2CCCC2)CC3)nn1-c1cc2c(nn1)-c1ccccc1CCC2` [Compound A, 1-(6,7-dihydro-5H-benzo[6,7]cyclohepta[1,2-c]pyridazine-3-yl)-N^3-(7-(S)-(pyrrolidin-1-yl)-6,7,8,9-tetrahydro-5H-benzo[7]annulene-2-yl)-1H-1,2,4-triazole-3,5-diamine], the values for the dissociation constant (Kd) in [1], in [2] and in [3] were 8.4 nM, 30 nM and 1.6 nM, respectively. Besides, the IC50 was found to be 22 nM in assay [4], 13 nM in [5], 796 nM in assay [6] and 1280 nM in [11]. The therapeutic window in assay [7] (investigated Ba/F3 cell lines, 48 hours) was in the range of 0.5 to 3 µM. The “induction of apoptosis at higher doses” value in assay [7] (≧3 μM, all cell lines regardless of FLT3 status) is “massive induction of apoptosis”. In assay [8], the leukemia cell burden entry is “reduced leukemia cell burden”. The “inhibition of wild type CML in vivo (tumor volume)” value in [9] is “potentially inhibits”. The “inhibition of T315I mutated CML in vivo (tumor volume)” value in assay [10] was “potentially inhibits”.

The values are drawn from patent US9801880B2, “Use of kinase inhibitors” (BerGenBio AS, priority 2013, dated 2017).
